Entries after “also recorded” stand apart in the source; their conditions may differ.
Legend:
wild-type male mice = test: Maximal electroshock seizure (MES) test; assay type: in vivo, mouse; conditions: 0.02 to 2 mg/kg i.p., 30 and 120 min post-injection
Method: Seizures Induced in the Maximal Electroshock Seizure (MES) Test
Experiments were carried out in accordance with the National Institute of Neurological Disorders and Stroke (NINDS) Epilepsy Therapy Screening Program (https://panache.ninds.nih.gov/TestDescription/TestMES). The MES test was carried out using wild-type male mice. MES is a model for generalized tonic-clonic seizures and provides an indication of a compound's ability to prevent seizure spread when all neuronal circuits in the brain are maximally active (White H S, Johnson M, Wolf H H, Kupferberg H J. The early identification of anticonvulsant activity: role of the maximal electroshock and subcutaneous pentylenetetrazol seizure models. Ital J Neurol sci. 1995; 16:73-7). These seizures are highly reproducible and are electrophysiologically consistent with human seizures. Seizures were induced by a high frequency (60 Hz) of alternating current at 50 mA over a short duration (0.2 sec) delivered through corneal electrodes. Prior to stimulation, corneas were irrigated with 0.5% tetracaine hydrochloride for local anesthesia and 0.9% saline to improve electrical conductivity. Seizures induced by MES are characterized by tonic extension of forelimbs and hindlimbs that is followed by brief episodes of clonic activity of the forelimbs and hindlimbs. […]

wild-type male CF-1 mice = test: Seizures induced by corneal electrical stimulation (CES, 6 Hz, 44 mA); assay type: in vivo, mouse
Method: Seizures Induced by Corneal Electrical Stimulation (CES) in Wild-Type Mice
Experiments were carried out in accordance with the National Institute of Neurological Disorders and Stroke (NINDS) Epilepsy Therapy Screening Program (https://panache.ninds.nih.gov/TestDescription/Test6HZ). The CES test was carried out using wild-type male CF-1 mice. Seizures were induced by a low frequency (6 Hz, 0.2 msec rectangular pulse), long-duration (3 sec), 44 mA current (double the current producing seizures in 97% of animals) delivered through corneal electrodes (Barton M E, Klein B D, Wolf H H, White H S. Pharmacological characterization of the 6 Hz psychomotor seizure model of partial epilepsy. Epilepsy Res. 2001; 47:217-27). A drop of 0.5% tetracaine hydrochloride in 0.9% saline (anesthetic/electrolyte) solution was applied to the eyes just prior to the placement of corneal electrodes. The seizure in mice is characterized by an initial momentary stun followed immediately by jaw clonus, forelimb clonus, twitching of the vibrissae, and “Straub tail”. Animals not displaying this behavior within the one-minute observation period are considered “protected” from seizures.
Testing for anti-seizure activity in the CES model was performed with 4 male mice/dose/time point. […] of NLX-101 (0.02, 0.06, 0.5, 1 and 2 mg/kg i.p.) and two timepoints (30 and 120 min after drug administration) were tested.

FMR1 knock-out (KO) mice = test: Audiogenic tonic-clonic seizures (TCS) in FMR1 transgenic mice; assay type: in vivo, mouse
Method: Audiogenic Tonic-Clonic Seizures (TCS) in FMR1 Transgenic Mice
FMR1 knock-out (KO) mice were bred and weaned at postnatal day 21 (P21), and all mice were tested between P21 to P23. NLX-101 was administered at doses of 0.6, 1.2, 1.8 and 2.4 mg/kg i.p. Control FMR1 KO mice received saline. NLX-101 or saline was injected 10 min before subjecting the mice to the auditory stimulus.
To differentiate each mouse for post-hoc video analysis, mice were color coded prior to drug or saline administration. Mice (up to 4/cage) were then put in a cage with a lid; after 10 min, a speaker was placed on top of the lid, and the cage placed in a sound attenuation booth (Gretch-Ken Inc., OR); the auditory stimulus was a continuously alternating up and down frequency modulated sweep with frequencies between 2-8 kHz, presented at an intensity between 105-110 dB for 15 min. The procedure lasted a total of 20 min starting with 5 min of habituation (without a sound stimulus). The full 20-min procedure was video recorded for off-line analysis.
The typical behavior of FMR1 knock-out mice subjected to loud audio stimulus includes tonic-clonic seizures (TCS: the mouse lays on the cage bottom with hindlimb extension), and death by respiratory arrest (manifested by a deep respiratory gasp and relaxation of pinna).
The latency time (from the stimulus onset) to the occurrence of TCS and death were recorded with a stopwatch (precision: 1 sec). Survival analysis was used to analyze the probability of TCS or death by log-rank test.

[1] = test system: mouse model of the Rett syndrome; conditions: cited from earlier work
humans = conditions: cited from earlier work

SMILES | occurrence of seizures in the MES test (wild-type male mice) | anti-seizure activity in the CES test (wild-type male CF-1 mice; 0.02 to 2 mg/kg i.p., 30 and 120 min) | mice with reduced seizure occurrence in the CES test (wild-type male CF-1 mice; highest dose tested (2 mg/kg i.p.), 30 min post injection) | number of FMR1 knock-out mice that died (FMR1 knock-out (KO) mice; 0.6-2.4 mg/kg i.p., 10 min before auditory stimulus, significant effects at 1.2, 1.8 and 2.4 mg/kg) | percentage of FMR1 knock-out mice displaying tonic-clonic seizures (FMR1 knock-out (KO) mice; 0.6-2.4 mg/kg i.p., 10 min before auditory stimulus, significant effects at 1.8 and 2.4 mg/kg) | mice protected from death (FMR1 knock-out (KO) mice; audiogenic tonic-clonic seizure model in FMR1 knock-out mice) | respiratory abnormalities [1] | seizures in humans (humans)
Cc1cnc(CNCC2(F)CCN(C(=O)c3ccc(F)c(Cl)c3)CC2)nc1 [NLX-101] | did not exhibit any anti-seizure activity; also recorded: did not affect the occurrence of seizures | did not exhibit any anti-seizure activity | 1 out of 4 | dose-dependently reduced | potently and efficaciously reduced seizures; also recorded: dose-dependently reduced | over 75% | improves the respiratory abnormalities | 
N#Cc1ccc2[nH]cc(CCCCN3CCN(c4ccc5oc(C(N)=O)cc5c4)CC3)c2c1 [vilazodone] |  |  |  |  |  |  |  | induces seizures
